In ChEMBL document CHEMBL4130444, “1,4-Naphthoquinones as inhibitors of Itch, a HECT domain-E3 ligase, and tumor growth suppressors in multiple myeloma” (Eur J Med Chem, 2017):

Columns and labels:
Homo sapiens [1] = organism: Homo sapiens; experiment: Inhibition of UBE1/UbcH5a/SCFFbw7/Cyclin E1 (unknown origin) assessed as protein activity at […] by electrochemiluminescence based ubiquitin profiler panel assay; design: scale not given: the % may be the effect or the level left
Homo sapiens [2] = organism: Homo sapiens; experiment: Inhibition of UBE1/UbcH3/SCFbTrCP1/IkBa (unknown origin) assessed as protein activity at […] by electrochemiluminescence based ubiquitin profiler panel assay; design: scale not given: the % may be the effect or the level left
Homo sapiens [3] = organism: Homo sapiens; experiment: Inhibition of UBE1/UbcH4/SCFbTrCP1/IkBa (unknown origin) assessed as protein activity at […] by electrochemiluminescence based ubiquitin profiler panel assay; design: scale not given: the % may be the effect or the level left
Homo sapiens [4] = organism: Homo sapiens; experiment: Inhibition of UBE1/UbcH3/SCFbTrCP1/b-catenin (unknown origin) assessed as protein activity at […] by electrochemiluminescence based ubiquitin profiler panel assay; design: scale not given: the % may be the effect or the level left
Homo sapiens [5] = organism: Homo sapiens; experiment: Inhibition of UBE1/UbcH4/SCFbTrCP1/b-catenin (unknown origin) assessed as protein activity at […] by electrochemiluminescence based ubiquitin profiler panel assay; design: scale not given: the % may be the effect or the level left
Homo sapiens [6] = organism: Homo sapiens; experiment: Inhibition of UBE1/UbcH4/MDM2/CK1d/p53 (unknown origin) assessed as protein activity at […] by electrochemiluminescence based ubiquitin profiler panel assay; design: scale not given: the % may be the effect or the level left
Homo sapiens [7] = organism: Homo sapiens; experiment: Inhibition of UBE1/UbcH5c/MDM2/CK1d/p53 (unknown origin) assessed as protein activity at […] by electrochemiluminescence based ubiquitin profiler panel assay; design: scale not given: the % may be the effect or the level left
Homo sapiens [8] = organism: Homo sapiens; experiment: Inhibition of UBE1/UbcH4/MDM2/MDM2(Auto) (unknown origin) assessed as protein activity at […] by electrochemiluminescence based ubiquitin profiler panel assay; design: scale not given: the % may be the effect or the level left
Homo sapiens [9] = organism: Homo sapiens; experiment: Inhibition of UBE1/UbcH5c/MDM2/MDM2(Auto) (unknown origin) assessed as protein activity at […] by electrochemiluminescence based ubiquitin profiler panel assay; design: scale not given: the % may be the effect or the level left
Homo sapiens [10] = organism: Homo sapiens; experiment: Inhibition of UBE1/UbcH4/c-Cbl/Src (unknown origin) assessed as protein activity at […] by electrochemiluminescence based ubiquitin profiler panel assay; design: scale not given: the % may be the effect or the level left
Homo sapiens [11] = organism: Homo sapiens; experiment: Inhibition of UBE1/UbcH4/c-Cbl/Kit (unknown origin) assessed as protein activity at […] by electrochemiluminescence based ubiquitin profiler panel assay; design: scale not given: the % may be the effect or the level left
Homo sapiens [12] = organism: Homo sapiens; experiment: Inhibition of UBE1/UbcH4/VHL/HIF-1a (unknown origin) assessed as protein activity at […] by electrochemiluminescence based ubiquitin profiler panel assay; design: scale not given: the % may be the effect or the level left
Homo sapiens [13] = organism: Homo sapiens; experiment: Inhibition of UBE1/UbcH5a/VHL/HIF-1a (unknown origin) assessed as protein activity at […] by electrochemiluminescence based ubiquitin profiler panel assay; design: scale not given: the % may be the effect or the level left
Homo sapiens [14] = organism: Homo sapiens; experiment: Inhibition of UBE1/UbcH5c/VHL/HIF-1a (unknown origin) assessed as protein activity at […] by electrochemiluminescence based ubiquitin profiler panel assay; design: scale not given: the % may be the effect or the level left
Homo sapiens [15] = organism: Homo sapiens; experiment: Inhibition of UBE1/UbcH7/Parkin/Parkin(Auto) (unknown origin) assessed as protein activity at […] by electrochemiluminescence based ubiquitin profiler panel assay; design: scale not given: the % may be the effect or the level left
Homo sapiens [16] = organism: Homo sapiens; experiment: Inhibition of UBE1/UbcH7/Parkin/p38/JTV-1 (unknown origin) assessed as protein activity at […] by electrochemiluminescence based ubiquitin profiler panel assay; design: scale not given: the % may be the effect or the level left
Homo sapiens [17] = organism: Homo sapiens; experiment: Inhibition of UBE1/UbcH13/Uev1A/CHIP/p53 (unknown origin) assessed as protein activity at […] by electrochemiluminescence based ubiquitin profiler panel assay; design: scale not given: the % may be the effect or the level left
Homo sapiens [18] = organism: Homo sapiens; experiment: Inhibition of UBE1/UbcH13/Uev1A/CHIP/Hsp70 (unknown origin) assessed as protein activity at […] by electrochemiluminescence based ubiquitin profiler panel assay; design: scale not given: the % may be the effect or the level left
Homo sapiens [19] = organism: Homo sapiens; experiment: Inhibition of UBE1/UbcH13/Uev1A/CHIP/CHIP(Auto) (unknown origin) assessed as protein activity at […] by electrochemiluminescence based ubiquitin profiler panel assay; design: scale not given: the % may be the effect or the level left
Homo sapiens [20] = organism: Homo sapiens; experiment: Inhibition of UBE1/UbcH5c/MuRF1/Cardiac Troponin (unknown origin) assessed as protein activity at […] by electrochemiluminescence based ubiquitin profiler panel assay; design: scale not given: the % may be the effect or the level left
Homo sapiens [21] = organism: Homo sapiens; experiment: Inhibition of UBE1/UbcH6/Parkin/Parkin(Auto) (unknown origin) assessed as protein activity at […] by electrochemiluminescence based ubiquitin profiler panel assay; design: scale not given: the % may be the effect or the level left
Homo sapiens [22] = organism: Homo sapiens; experiment: Inhibition of UBE1/UbcH6/Parkin/p38/JTV-1 (unknown origin) assessed as protein activity at […] by electrochemiluminescence based ubiquitin profiler panel assay; design: scale not given: the % may be the effect or the level left
A-431 = experiment: Antiproliferative activity against human A431 cells incubated for 48 hrs by SRB assay; format: functional; settings: A-431, 48 h
[23] = system: KATO III stomach cancer cell line; experiment: Antiproliferative activity against human KATO III cells incubated for 48 hrs by SRB assay; format: functional
U-87 MG = experiment: Antiproliferative activity against human U87MG cells incubated for 48 hrs by SRB assay; format: functional, U-87MG ATCC
Hep 3B2 = experiment: Antiproliferative activity against human Hep3B cells incubated for 48 hrs by SRB assay; format: functional
HepG2 = experiment: Antiproliferative activity against human HepG2 cells incubated for 48 hrs by SRB assay; format: functional; settings: HepG2, 48 h
A498 = experiment: Antiproliferative activity against human A498 cells incubated for 48 hrs by SRB assay; format: functional; settings: A498, 48 h
ACHN = experiment: Antiproliferative activity against human ACHN cells incubated for 48 hrs by SRB assay; format: functional
MOLT-4 = experiment: Antiproliferative activity against human MOLT4 cells incubated for 48 hrs by SRB assay; format: functional; settings: MOLT-4, 48 h
HL-60 = experiment: Antiproliferative activity against human HL60 cells incubated for 48 hrs by SRB assay; format: functional; settings: HL-60, 48 h
K562 = experiment: Antiproliferative activity against human K562 cells incubated for 48 hrs by SRB assay; format: functional; settings: K562, 48 h

Activity (Homo sapiens [1]): 100%
Activity (Homo sapiens [2]): 102%
Activity (Homo sapiens [3]): 91%
Activity (Homo sapiens [4]): 101%
Activity (Homo sapiens [5]): 68%
Activity (Homo sapiens [6]): 71%
Activity (Homo sapiens [7]): 75%
Activity (Homo sapiens [8]): 92%
Activity (Homo sapiens [9]): 105%
Activity (Homo sapiens [10]): 89%
Activity (Homo sapiens [11]): 86%
Activity (Homo sapiens [12]): 96%
Activity (Homo sapiens [13]): 95%
Activity (Homo sapiens [14]): 100%
Activity (Homo sapiens [15]): 65%
Activity (Homo sapiens [16]): 72%
Activity (Homo sapiens [17]): 52%
Activity (Homo sapiens [18]): 93%
Activity (Homo sapiens [19]): 65%
Activity (Homo sapiens [20]): 92%
Activity (Homo sapiens [21]): 61%
Activity (Homo sapiens [22]): 79%
GI50 (A-431): 1200 nM
GI50 [23]: 2400 nM
GI50 (U-87 MG): 2500 nM
GI50 (HepG2): 3600 nM
GI50 (ACHN): 2700 nM
GI50 (MOLT-4): 4000 nM
GI50 (HL-60): 1600 nM
GI50 (K562): 1700 nM
SMILES: O=C(Nc1ccncc1)c1ccc(CNC2=C(Cl)C(=O)c3ccccc3C2=O)cc1
GI50 (Hep 3B2): 1400 nM
GI50 (A498): 3500 nM
